Reference: patent US4401660A, “Ester derivatives of 5-O-mycaminosyl tylonolide and method of using same” (Eli Lilly and Company, priority 1981, dated 1983)
Like-named read-outs stand apart in the source and are kept apart here.

Columns and labels:
[1] = tested on: Haemophilus influenzae Holt; test: MIC, standard agar-dilution assay (Table II); assay type: cell-based; parameters: unit not given here; conditions: ampicillin-sensitive strain
Description: (§1) The MIC's in Table II were determined by standard agar-dilution assays. The MIC's in Table III were obtained using a conventional broth-dilution microtiter test.

[2] = tested on: Haemophilus influenzae R252; test: MIC, standard agar-dilution assay (Table II); assay type: cell-based; parameters: unit not given here; conditions: Haemophilus influenzae R252, ampicillin-resistant strain
Description: as §1

[3] = tested on: Staphylococcus aureus S13E; test: MIC, standard agar-dilution assay (Table II); assay type: cell-based; parameters: unit not given here
Description: as §1

[4] = tested on: Staphylococcus aureus V41; test: MIC, standard agar-dilution assay (Table II); assay type: cell-based; parameters: unit not given here; conditions: Staphylococcus aureus V41, penicillin-resistant strain
Description: as §1

[5] = tested on: Staphylococcus aureus X1.1; test: MIC, standard agar-dilution assay (Table II); assay type: cell-based; parameters: unit not given here
Description: as §1

[6] = tested on: Staphylococcus aureus X400; test: MIC, standard agar-dilution assay (Table II); assay type: cell-based; parameters: unit not given here; conditions: Staphylococcus aureus X400, methicillin-resistant strain
Description: as §1

[7] = tested on: Staphylococcus epidermidis EPI1; test: MIC, standard agar-dilution assay (Table II); assay type: cell-based; parameters: unit not given here
Description: as §1

[8] = tested on: Staphylococcus epidermidis EPI2; test: MIC, standard agar-dilution assay (Table II); assay type: cell-based; parameters: unit not given here
Description: as §1

[9] = tested on: Streptococcus Group D 9960; test: MIC, standard agar-dilution assay (Table II); assay type: cell-based; parameters: unit not given here
Description: as §1

[10] = tested on: Streptococcus Group D X66; test: MIC, standard agar-dilution assay (Table II); assay type: cell-based; parameters: unit not given here
Description: as §1

[11] = tested on: Streptococcus pneumoniae Park I; test: MIC, standard agar-dilution assay (Table II); assay type: cell-based; parameters: unit not given here
Description: as §1

[12] = tested on: Streptococcus pyogenes C203; test: MIC, standard agar-dilution assay (Table II); assay type: cell-based; parameters: unit not given here
Description: as §1

[13] = tested on: Mycoplasma gallisepticum; test: MIC, broth-dilution microtiter test (Table III); assay type: cell-based; parameters: unit not given here
Description: as §1

[14] = tested on: Mycoplasma hyorhinis; test: MIC, broth-dilution microtiter test (Table III); assay type: cell-based; parameters: unit not given here
Description: as §1

[15] = tested on: Mycoplasma synoviae; test: MIC, broth-dilution microtiter test (Table III); assay type: cell-based; parameters: unit not given here
Description: as §1

[16] = tested on: Pasteurella haemolytica 22C; test: MIC, broth-dilution microtiter test (Table III); assay type: cell-based; parameters: unit not given here
Description: as §1

[17] = tested on: Pasteurella haemolytica 23C; test: MIC, broth-dilution microtiter test (Table III); assay type: cell-based; parameters: unit not given here
Description: as §1

[18] = tested on: Pasteurella haemolytica 41D; test: MIC, broth-dilution microtiter test (Table III); assay type: cell-based; parameters: unit not given here
Description: as §1

[19] = tested on: Pasteurella multocida 17E; test: MIC, broth-dilution microtiter test (Table III); assay type: cell-based; parameters: unit not given here; conditions: bovine isolate
Description: as §1

[20] = tested on: Pasteurella multocida 22A; test: MIC, broth-dilution microtiter test (Table III); assay type: cell-based; parameters: unit not given here
Description: as §1

[21] = tested on: Pasteurella multocida 40G; test: MIC, broth-dilution microtiter test (Table III); assay type: cell-based; parameters: unit not given here
Description: as §1

[22] = tested on: Pasteurella multocida 60A; test: MIC, broth-dilution microtiter test (Table III); assay type: cell-based; parameters: unit not given here; conditions: avian isolate
Description: as §1

[23] = tested on: Pasteurella multocida 68C; test: MIC, broth-dilution microtiter test (Table III); assay type: cell-based; parameters: unit not given here
Description: as §1

[24] = tested on: Staphylococcus aureus; test: MIC, broth-dilution microtiter test (Table III); assay type: cell-based; parameters: unit not given here
Description: as §1

[25] = tested on: Streptococcus sp. 80; test: MIC, broth-dilution microtiter test (Table III); assay type: cell-based; parameters: unit not given here
Description: as §1

[26] = tested on: Streptococcus pyogenes C203; test: ED50 in mice with experimental infections (Table IV); assay type: in vivo; conditions: doses given 1 and 4 hours postinfection; for ED50: Streptococcus pyogenes
Method in brief: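 Mice with experimental infections received test compound twice, at 1 and 4 h postinfection. ED50 is the dose in mg/kg (per administration, ×2) protecting 50% of animals.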

[27] = tested on: Pasteurella multocida; test: Treatment of Pasteurella infections in chicks (Table V); assay type: in vivo, one-day-old chicks; conditions: 30 mg/kg by subcutaneous injection one and four hours post challenge; for mortality at 30 mg/kg: Pasteurella multocida, sc, 4 h, read-out: Deaths in Treated Chicks/Number Treated (converted)
Method in brief: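 One-day-old chicks challenged subcutaneously with avian P. multocida (0.1 ml of 10^-3 dilution of 20-hour tryptose broth culture). Esters given at 30 mg/kg subcutaneously at 1 and 4 hours post challenge. Untreated infected controls, ten per group.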

[28] = C203, oral, read-out: ED50, Oral
[29] = C203, sc, subcutaneous, read-out: ED50, Subcutaneous

With `CCC1OC(=O)CC(O)C(C)C(OC2OC(C)C(O)C(N(C)C)C2OC(C)=O)C(CC=O)CC(C)C(=O)C=CC(C)=CC1CO` (stereo not shown) [Compound 1, 2'-O-Acetyl-OMT] as the molecule, how does the “minimal inhibitory concentration (MIC)” value [1] read?
The value was 4.

What about the “minimal inhibitory concentration (MIC)” value [2] of the same molecule?
The value was 4.

And the “minimal inhibitory concentration (MIC)” value [3]?
The value was 4.

What about the “minimal inhibitory concentration (MIC)” value [4] of the same molecule?
Its value is 4.

And the “minimal inhibitory concentration (MIC)” value [5]?
The value was 2.

What about the “minimal inhibitory concentration (MIC)” value [6] of the same molecule?
The value was 4.

And the “minimal inhibitory concentration (MIC)” value [7]?
The value was 2.

And the “minimal inhibitory concentration (MIC)” value [8]?
The value was 2.

What about the “minimal inhibitory concentration (MIC)” value [9] of the same molecule?
Its value is 4.

And the “minimal inhibitory concentration (MIC)” value [10]?
The value was 2.

And the “minimal inhibitory concentration (MIC)” value [11]?
The value was 0.5.

And the “minimal inhibitory concentration (MIC)” value [12]?
Its value is 0.5.

And the “minimal inhibitory concentration (MIC)” value [13]?
Its value is 0.39.

What about the “minimal inhibitory concentration (MIC)” value [14] of the same molecule?
The value was 3.12.

And the “minimal inhibitory concentration (MIC)” value [15]?
Its value is 0.39.

What about the “minimal inhibitory concentration (MIC)” value [16] of the same molecule?
Its value is 12.5.

And the “minimal inhibitory concentration (MIC)” value [17]?
Its value is 12.5.

And the “minimal inhibitory concentration (MIC)” value [18]?
Its value is 12.5.

What about the “minimal inhibitory concentration (MIC)” value [19] of the same molecule?
Its value is 1.56.

And the “minimal inhibitory concentration (MIC)” value [20]?
Its value is 3.12.

What about the “minimal inhibitory concentration (MIC)” value [21] of the same molecule?
Its value is 6.25.

What about the “minimal inhibitory concentration (MIC)” value [22] of the same molecule?
Its value is 1.56.

And the “minimal inhibitory concentration (MIC)” value [23]?
Its value is 3.12.

What about the “minimal inhibitory concentration (MIC)” value [24] of the same molecule?
The value was 1.56.

What about the “minimal inhibitory concentration (MIC)” value [25] of the same molecule?
The value was 0.78.

And the ED50 [26, 28]?
The ED50 was over 150 mg/kg.

What about the ED50 [26, 29] of the same molecule?
Its ED50 is 6.8 mg/kg.

And the mortality at 30 mg/kg [27]?
The mortality at 30 mg/kg was 0%.

Which results are given for `CCC1OC(=O)CC(O)C(C)C(OC2OC(C)C(O)C(N(C)C)C2O)C(CC=O)CC(C)C(=O)C=CC(C)=CC1COC(C)=O` (stereo not shown) [Compound 13, 23-O-Acetyl-OMT]?
minimal inhibitory concentration (MIC) [1]: 1; minimal inhibitory concentration (MIC) [2]: 4; minimal inhibitory concentration (MIC) [3]: 0.25; minimal inhibitory concentration (MIC) [4]: 0.25; minimal inhibitory concentration (MIC) [5]: 0.25; minimal inhibitory concentration (MIC) [6]: 0.5; minimal inhibitory concentration (MIC) [7]: 0.25; minimal inhibitory concentration (MIC) [8]: 0.25; minimal inhibitory concentration (MIC) [9]: 0.5; minimal inhibitory concentration (MIC) [10]: 0.25; minimal inhibitory concentration (MIC) [11]: 0.125; minimal inhibitory concentration (MIC) [12]: 0.125; minimal inhibitory concentration (MIC) [13]: 0.05; minimal inhibitory concentration (MIC) [14]: 0.78; minimal inhibitory concentration (MIC) [15]: 0.097; minimal inhibitory concentration (MIC) [16]: 3.12; minimal inhibitory concentration (MIC) [17]: 3.12; minimal inhibitory concentration (MIC) [18]: 6.25; minimal inhibitory concentration (MIC) [19]: 1.56; minimal inhibitory concentration (MIC) [20]: 1.56; minimal inhibitory concentration (MIC) [21]: 3.12; minimal inhibitory concentration (MIC) [22]: 1.56; minimal inhibitory concentration (MIC) [23]: 1.56; minimal inhibitory concentration (MIC) [24]: 0.39; minimal inhibitory concentration (MIC) [25]: 0.195; ED50 [26, 28]: 109 mg/kg; ED50 [26, 29]: 3.3 mg/kg; mortality at 30 mg/kg [27]: 0%

With `CCC1OC(=O)CC(O)C(C)C(OC2OC(C)C(O)C(N(C)C)C2O)C(CC=O)CC(C)C(=O)C=CC(C)=CC1COC(=O)C(N)c1ccccc1` (stereo not shown) [Compound 57] as the molecule, how does the “minimal inhibitory concentration (MIC)” value [1] read?
The value was 2.

And the “minimal inhibitory concentration (MIC)” value [2]?
Its value is 2.

And the “minimal inhibitory concentration (MIC)” value [3]?
Its value is 0.5.

And the “minimal inhibitory concentration (MIC)” value [4]?
Its value is 0.5.

What about the “minimal inhibitory concentration (MIC)” value [5] of the same molecule?
Its value is 0.5.

What about the “minimal inhibitory concentration (MIC)” value [6] of the same molecule?
Its value is 1.

What about the “minimal inhibitory concentration (MIC)” value [7] of the same molecule?
Its value is 0.5.

What about the “minimal inhibitory concentration (MIC)” value [8] of the same molecule?
Its value is 1.

And the “minimal inhibitory concentration (MIC)” value [9]?
The value was 0.5.

And the “minimal inhibitory concentration (MIC)” value [10]?
Its value is 0.5.

What about the “minimal inhibitory concentration (MIC)” value [11] of the same molecule?
The value was 0.03.

And the “minimal inhibitory concentration (MIC)” value [12]?
Its value is 0.125.

What about the “minimal inhibitory concentration (MIC)” value [13] of the same molecule?
The value was 0.195.

What about the “minimal inhibitory concentration (MIC)” value [14] of the same molecule?
Its value is 6.25.

And the “minimal inhibitory concentration (MIC)” value [15]?
Its value is 0.39.

And the “minimal inhibitory concentration (MIC)” value [16]?
Its value is 6.25.

And the “minimal inhibitory concentration (MIC)” value [17]?
Its value is 6.25.

What about the “minimal inhibitory concentration (MIC)” value [18] of the same molecule?
Its value is 6.25.

What about the “minimal inhibitory concentration (MIC)” value [19] of the same molecule?
The value was 6.25.

What about the “minimal inhibitory concentration (MIC)” value [20] of the same molecule?
Its value is 3.12.

What about the “minimal inhibitory concentration (MIC)” value [21] of the same molecule?
Its value is 3.12.

And the “minimal inhibitory concentration (MIC)” value [22]?
The value was 3.12.

What about the “minimal inhibitory concentration (MIC)” value [23] of the same molecule?
Its value is 3.12.

And the “minimal inhibitory concentration (MIC)” value [24]?
The value was 3.12.

What about the “minimal inhibitory concentration (MIC)” value [25] of the same molecule?
The value was 0.39.

And the “ED50, Oral” value ([26]; oral)?
The value was 91 mg/kg × 2.

What about the “ED50, Subcutaneous” value ([26]; subcutaneous) of the same molecule?
Its value is 2.6 mg/kg × 2.

And the “Deaths in Treated Chicks/Number Treated” value [27]?
Its value is 0/10.

What does the source list for `CCC1OC(=O)CC(O)C(C)C(OC2OC(C)C(OC(=O)CC(C)C)C(N(C)C)C2OC(C)=O)C(CC=O)CC(C)C(=O)C=CC(C)=CC1CO` (stereo not shown) [Compound 49, 2'-O-Acetyl-4'-O-isovaleryl-OMT]?
minimal inhibitory concentration (MIC) [1]: 1; minimal inhibitory concentration (MIC) [2]: 1; minimal inhibitory concentration (MIC) [3]: 2; minimal inhibitory concentration (MIC) [4]: 2; minimal inhibitory concentration (MIC) [5]: 1; minimal inhibitory concentration (MIC) [6]: 4; minimal inhibitory concentration (MIC) [7]: 1; minimal inhibitory concentration (MIC) [8]: 2; minimal inhibitory concentration (MIC) [9]: 1; minimal inhibitory concentration (MIC) [10]: 1; minimal inhibitory concentration (MIC) [11]: 0.125; minimal inhibitory concentration (MIC) [12]: 0.25; minimal inhibitory concentration (MIC) [13]: 1.56; minimal inhibitory concentration (MIC) [14]: 6.25; minimal inhibitory concentration (MIC) [15]: 0.78; minimal inhibitory concentration (MIC) [16]: 12.5; minimal inhibitory concentration (MIC) [17]: 12.5; minimal inhibitory concentration (MIC) [18]: 12.5; minimal inhibitory concentration (MIC) [19]: 3.12; minimal inhibitory concentration (MIC) [20]: 6.25; minimal inhibitory concentration (MIC) [21]: 3.12; minimal inhibitory concentration (MIC) [22]: 3.12; minimal inhibitory concentration (MIC) [23]: 25; minimal inhibitory concentration (MIC) [24]: 3.12; minimal inhibitory concentration (MIC) [25]: 0.39; ED50 [26, 28]: > 100 mg/kg; ED50 [26, 29]: > 30 mg/kg; mortality at 30 mg/kg [27]: 100%
